Data published in PubChem BioAssay (NCI).
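Protocol summary: plate cells (96-well), add compound at 5 concentrations, incubate 48 h, interpolate endpoints linearly. At the TGI there is no net growth.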

Columns and labels:
Experiment in all cases: growth of human tumour cells (NCI), 48 h
A498 renal = test system: A498 renal
ACHN renal = test system: ACHN renal
CAKI-1 renal = test system: CAKI-1 renal
CCRF-CEM leukemia = test system: CCRF-CEM leukemia
COLO 205 colon = test system: COLO 205 colon
DU-145 prostate = test system: DU-145 prostate
EKVX NSCLC = test system: EKVX NSCLC
HCC-2998 colon = test system: HCC-2998 colon
HCT-15 colon = test system: HCT-15 colon
HOP-62 NSCLC = test system: HOP-62 NSCLC
HOP-92 NSCLC = test system: HOP-92 NSCLC
HS 578T breast = test system: HS 578T breast
HT29 colon = test system: HT29 colon
IGROV1 ovarian = test system: IGROV1 ovarian
K-562 leukemia = test system: K-562 leukemia
KM12 colon = test system: KM12 colon
LOX IMVI melanoma = test system: LOX IMVI melanoma
M14 melanoma = test system: M14 melanoma
MCF7 breast = test system: MCF7 breast
MDA-MB-231 breast = test system: MDA-MB-231 breast
MDA-MB-435 = test system: MDA-MB-435
MDA-N = test system: MDA-N
MOLT-4 leukemia = test system: MOLT-4 leukemia
NCI-H226 lung = test system: NCI-H226 lung
NCI-H23 lung = test system: NCI-H23 lung
NCI-H460 lung = test system: NCI-H460 lung
NCI/ADR-RES ovarian = test system: NCI/ADR-RES ovarian
OVCAR-3 ovarian = test system: OVCAR-3 ovarian
OVCAR-4 ovarian = test system: OVCAR-4 ovarian
OVCAR-5 ovarian = test system: OVCAR-5 ovarian
OVCAR-8 ovarian = test system: OVCAR-8 ovarian
PC-3 prostate = test system: PC-3 prostate
RPMI-8226 leukemia = test system: RPMI-8226 leukemia
SF-268 CNS = test system: SF-268 CNS
SF-295 CNS = test system: SF-295 CNS
SF-539 CNS = test system: SF-539 CNS
SK-MEL-2 melanoma = test system: SK-MEL-2 melanoma
SK-MEL-28 melanoma = test system: SK-MEL-28 melanoma
SK-MEL-5 melanoma = test system: SK-MEL-5 melanoma
SK-OV-3 ovarian = test system: SK-OV-3 ovarian
SNB-19 CNS = test system: SNB-19 CNS
SNB-75 CNS = test system: SNB-75 CNS
SR leukemia = test system: SR leukemia
SW-620 colon = test system: SW-620 colon
T-47D breast = test system: T-47D breast
TK-10 renal = test system: TK-10 renal
U251 CNS = test system: U251 CNS
UACC-257 melanoma = test system: UACC-257 melanoma
UACC-62 melanoma = test system: UACC-62 melanoma
UO-31 renal = test system: UO-31 renal
786-0 renal = test system: 786-0 renal
A549 NSCLC = test system: A549 NSCLC
BT-549 breast = test system: BT-549 breast
HCT-116 colon = test system: HCT-116 colon
MALME-3M melanoma = test system: MALME-3M melanoma
NCI-H522 lung = test system: NCI-H522 lung
RXF 393 renal = test system: RXF 393 renal
SN12C renal = test system: SN12C renal

Molecule `CC(=O)O[C@H]1CN(S(=O)(=O)c2ccc(C)cc2)C[C@@H]1C1CCCCC1` has a TGI (A498 renal) of over 100 µM, a TGI (ACHN renal) of over 100 µM and a TGI (CAKI-1 renal) of 83.7 µM. It also gave a TGI (CCRF-CEM leukemia) of over 100 µM, a TGI (COLO 205 colon) of over 100 µM and a TGI (DU-145 prostate) of over 100 µM. It also gave a TGI (EKVX NSCLC) of 52.8 µM, a TGI (HCC-2998 colon) of over 100 µM and a TGI (HCT-15 colon) of over 100 µM. The TGI (HOP-62 NSCLC) was over 100 µM, the TGI (HOP-92 NSCLC) was 82.4 µM and the TGI (HS 578T breast) was 37.8 µM. For the same molecule, the TGI (HT29 colon) was 84.7 µM, the TGI (IGROV1 ovarian) was 40.9 µM and the TGI (K-562 leukemia) was over 100 µM. It also gave a TGI (KM12 colon) of 36.3 µM, a TGI (LOX IMVI melanoma) of 49.2 µM and a TGI (M14 melanoma) of 37.3 µM. For the same molecule, the TGI (MCF7 breast) was 42.6 µM, the TGI (MDA-MB-231 breast) was 82.7 µM and the TGI (MDA-MB-435) was 70.5 µM. The TGI (MDA-N) was over 100 µM, the TGI (MOLT-4 leukemia) was 62.7 µM and the TGI (NCI-H226 lung) was 48.9 µM. It also gave a TGI (NCI-H23 lung) of over 100 µM, a TGI (NCI-H460 lung) of over 100 µM and a TGI (NCI/ADR-RES ovarian) of 58.5 µM. The TGI (OVCAR-3 ovarian) was 43.5 µM, the TGI (OVCAR-4 ovarian) was over 100 µM and the TGI (OVCAR-5 ovarian) was over 100 µM. It also gave a TGI (OVCAR-8 ovarian) of 73.2 µM, a TGI (PC-3 prostate) of 58.5 µM and a TGI (RPMI-8226 leukemia) of 79.7 µM. The TGI (SF-268 CNS) was 90.8 µM, the TGI (SF-295 CNS) was 32 µM and the TGI (SF-539 CNS) was 10.5 µM. It also gave a TGI (SK-MEL-2 melanoma) of 37.7 µM, a TGI (SK-MEL-28 melanoma) of 59 µM and a TGI (SK-MEL-5 melanoma) of 31.9 µM. For the same molecule, the TGI (SK-OV-3 ovarian) was over 100 µM, the TGI (SNB-19 CNS) was over 100 µM and the TGI (SNB-75 CNS) was 63.1 µM. It also gave a TGI (SR leukemia) of over 100 µM, a TGI (SW-620 colon) of over 100 µM and a TGI (T-47D breast) of over 100 µM. It also gave a TGI (TK-10 renal) of 72.2 µM, a TGI (U251 CNS) of over 100 µM and a TGI (UACC-257 melanoma) of 48.3 µM. The TGI (UACC-62 melanoma) was 61.7 µM and the TGI (UO-31 renal) was over 100 µM.

`O=C(O)c1cc(Cl)cc2c1NC1(N2)C(=O)Nc2ccccc21` (configuration not stated) gave a TGI (786-0 renal) of over 100 µM, a TGI (A498 renal) of over 100 µM and a TGI (A549 NSCLC) of over 100 µM. For the same molecule, the TGI (ACHN renal) was over 100 µM, the TGI (BT-549 breast) was over 100 µM and the TGI (CAKI-1 renal) was over 100 µM. For the same molecule, the TGI (CCRF-CEM leukemia) was over 100 µM, the TGI (COLO 205 colon) was over 100 µM and the TGI (DU-145 prostate) was over 100 µM. The TGI (EKVX NSCLC) was over 100 µM, the TGI (HCC-2998 colon) was over 100 µM and the TGI (HCT-116 colon) was over 100 µM. It also gave a TGI (HCT-15 colon) of over 100 µM, a TGI (HOP-62 NSCLC) of over 100 µM and a TGI (HOP-92 NSCLC) of over 100 µM. The TGI (HT29 colon) was over 100 µM, the TGI (IGROV1 ovarian) was over 100 µM and the TGI (K-562 leukemia) was over 100 µM. For the same molecule, the TGI (KM12 colon) was over 100 µM, the TGI (LOX IMVI melanoma) was over 100 µM and the TGI (M14 melanoma) was over 100 µM. The TGI (MALME-3M melanoma) was over 100 µM, the TGI (MCF7 breast) was over 100 µM and the TGI (MDA-MB-231 breast) was over 100 µM. For the same molecule, the TGI (MDA-MB-435) was over 100 µM, the TGI (MDA-N) was over 100 µM and the TGI (MOLT-4 leukemia) was over 100 µM. For the same molecule, the TGI (NCI-H226 lung) was over 100 µM, the TGI (NCI-H23 lung) was over 100 µM and the TGI (NCI-H460 lung) was over 100 µM. For the same molecule, the TGI (NCI-H522 lung) was over 100 µM, the TGI (NCI/ADR-RES ovarian) was over 100 µM and the TGI (OVCAR-3 ovarian) was over 100 µM. The TGI (OVCAR-4 ovarian) was over 100 µM, the TGI (OVCAR-5 ovarian) was over 100 µM and the TGI (OVCAR-8 ovarian) was over 100 µM. It also gave a TGI (PC-3 prostate) of over 100 µM, a TGI (RPMI-8226 leukemia) of over 100 µM and a TGI (RXF 393 renal) of over 100 µM. The TGI (SF-268 CNS) was over 100 µM, the TGI (SF-295 CNS) was over 100 µM and the TGI (SF-539 CNS) was over 100 µM. The TGI (SK-MEL-2 melanoma) was over 100 µM, the TGI (SK-MEL-28 melanoma) was over 100 µM and the TGI (SK-MEL-5 melanoma) was over 100 µM. It also gave a TGI (SK-OV-3 ovarian) of over 100 µM, a TGI (SN12C renal) of over 100 µM and a TGI (SNB-19 CNS) of over 100 µM. The TGI (SNB-75 CNS) was over 100 µM, the TGI (SR leukemia) was over 100 µM and the TGI (SW-620 colon) was over 100 µM. For the same molecule, the TGI (T-47D breast) was over 100 µM, the TGI (TK-10 renal) was over 100 µM and the TGI (U251 CNS) was over 100 µM. The TGI (UACC-257 melanoma) was over 100 µM, the TGI (UACC-62 melanoma) was over 100 µM and the TGI (UO-31 renal) was over 100 µM.
